Measured values published in the NIST ThermoML archive (doi:10.1016/j.jct.2011.02.008).
Numbers after ± are expanded uncertainties.

Assay: xn = mol fraction of the nth substance listed
Settings: Liquid, Vibrating tube method

COC(=O)c1ccccc1 [methyl benzoate] + CCCCCCO
mass density [kg/m3]
Settings	x1 = 0.1004	x1 = 0.2007	x1 = 0.3007	x1 = 0.4013	x1 = 0.5005	x1 = 0.6009	x1 = 0.7	x1 = 0.8008	x1 = 0.9009
278.15 K, 100 kPa	856.6 ± 2.4	883.8 ± 2.4	911.4 ± 2.4	938.8 ± 2.4	966 ± 2.4	993.4 ± 2.4	1020.3 ± 2.4	1047.7 ± 2.4	1075.1 ± 2.4
278.15 K, 1000 kPa	857.1 ± 2.4	884.4 ± 2.4	911.9 ± 2.4	939.4 ± 2.4	966.5 ± 2.4	993.9 ± 2.4	1020.8 ± 2.4	1048.2 ± 2.4	1075.5 ± 2.4
278.15 K, 5000 kPa	859.7 ± 2.4	886.9 ± 2.4	914.4 ± 2.4	941.8 ± 2.4	968.9 ± 2.4	996.3 ± 2.4	1023.2 ± 2.4	1050.6 ± 2.4	1077.9 ± 2.4
278.15 K, 10000 kPa	862.7 ± 2.4	889.9 ± 2.4	917.3 ± 2.4	944.8 ± 2.4	971.9 ± 2.4	999.2 ± 2.4	1026 ± 2.4	1053.4 ± 2.4	1080.7 ± 2.4
278.15 K, 15000 kPa	865.6 ± 2.4	892.8 ± 2.4	920.3 ± 2.4	947.6 ± 2.4	974.7 ± 2.4	1002 ± 2.4	1028.9 ± 2.4	1056.3 ± 2.4	1083.5 ± 2.4
278.15 K, 20000 kPa	868.5 ± 2.4	895.6 ± 2.4	923.1 ± 2.4	950.4 ± 2.4	977.5 ± 2.4	1004.7 ± 2.4	1031.6 ± 2.4	1059 ± 2.4	1086.2 ± 2.4
278.15 K, 25000 kPa	871.2 ± 2.4	898.3 ± 2.4	925.8 ± 2.4	953.1 ± 2.4	980.2 ± 2.4	1007.4 ± 2.4	1034.2 ± 2.4	1061.6 ± 2.4	1088.7 ± 2.4
278.15 K, 30000 kPa	873.8 ± 2.4	901 ± 2.4	928.4 ± 2.4	955.8 ± 2.4	982.8 ± 2.4	1010 ± 2.4	1036.8 ± 2.4	1064.2 ± 2.4	1091.3 ± 2.4
278.15 K, 35000 kPa	876.5 ± 2.4	903.6 ± 2.4	931 ± 2.4	958.3 ± 2.4	985.4 ± 2.4	1012.6 ± 2.4	1039.4 ± 2.4	1066.7 ± 2.4	1093.8 ± 2.4
278.15 K, 40000 kPa	879 ± 2.4	906.1 ± 2.4	933.6 ± 2.4	960.9 ± 2.4	987.9 ± 2.4	1015.1 ± 2.4	1041.9 ± 2.4	1069.2 ± 2.4	1096.3 ± 2.4
278.15 K, 45000 kPa	881.5 ± 2.4	908.6 ± 2.4	936 ± 2.4	963.3 ± 2.4	990.4 ± 2.4	1017.6 ± 2.4	1044.3 ± 2.4	1071.7 ± 2.4	1098.7 ± 2.4
278.15 K, 50000 kPa	883.9 ± 2.4	911.1 ± 2.4	938.5 ± 2.4	965.8 ± 2.4	992.8 ± 2.4	1020 ± 2.4	1046.7 ± 2.4	1074 ± 2.4	1101.1 ± 2.4
278.15 K, 55000 kPa	886.3 ± 2.4	913.4 ± 2.4	940.8 ± 2.4	968.1 ± 2.4	995.2 ± 2.4	1022.3 ± 2.4	1049.1 ± 2.4	1076.4 ± 2.4	1103.5 ± 2.4
278.15 K, 60000 kPa	888.4 ± 2.4	915.6 ± 2.4	943 ± 2.4	970.3 ± 2.4	997.3 ± 2.4	1024.5 ± 2.4	1051.4 ± 2.4	1078.7 ± 2.4	1105.6 ± 2.4
288.15 K, 100 kPa	849.1 ± 2.4	876 ± 2.4	903.2 ± 2.4	930.4 ± 2.4	957.3 ± 2.4	984.4 ± 2.4	1011.1 ± 2.4	1038.4 ± 2.4	1065.5 ± 2.4
288.15 K, 1000 kPa	849.7 ± 2.4	876.6 ± 2.4	903.8 ± 2.4	931 ± 2.4	957.9 ± 2.4	985 ± 2.4	–	–	–
